Experimental findings from PubChem BioAssay (NCI) are described below.

Among the test systems are NCI-H460 lung; OVCAR-3 ovarian; KM12 colon; HOP-92 NSCLC; SF-295 CNS; DU-145 prostate; SF-539 CNS; OVCAR-5 ovarian; HS 578T breast; RPMI-8226 leukemia.
Common to all, as to test: NCI-60 cell line screen, 48 h

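All cell lines were grown in 96-well plates and treated with compound for 48 hours. GI50 marks 50% less growth. TGI denotes the concentration required for complete inhibition of growth.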

On to `COc1ccc2c(c1)CCc1[nH]nc(-c3cc(OC)c(OC)c(OC)c3)c1-2`, for which the GI50 in the test on NCI-H460 lung, in the test with OVCAR-3 ovarian, in the test with KM12 colon, with HOP-92 NSCLC, in the test with SF-295 CNS and in the test with DU-145 prostate was < 0.01 µM in each case. The GI50 in the test on SF-539 CNS was < 0.01 µM; in the test with OVCAR-5 ovarian, 0.242 µM; in the test with HS 578T breast, < 0.01 µM. Besides, the TGI was 2.06 µM in the test with NCI-H460 lung; 14.7 µM in the test with OVCAR-3 ovarian; 11.8 µM in the test on KM12 colon; 28.5 µM in the test with HOP-92 NSCLC; 3.22 µM with SF-295 CNS; > 100 µM in the test on DU-145 prostate. Further, the TGI is < 0.01 µM in the test with SF-539 CNS, 38.8 µM in the test on OVCAR-5 ovarian and 22.3 µM in the test with HS 578T breast.
Consider `CCN(CC)CCCC(C)Nc1c2ccc(Cl)cc2nc2cc(OC)c(OC)cc12` (stereo not drawn), for which the GI50 in the test on NCI-H460 lung was 1.3 µM; in the test on RPMI-8226 leukemia, 2.47 µM; in the test with OVCAR-3 ovarian, 1.98 µM; in the test on KM12 colon, 2.54 µM; in the test on HOP-92 NSCLC, 2.33 µM; in the test with SF-295 CNS, 1.5 µM. Further, the GI50 in the test on DU-145 prostate was 2.02 µM; in the test with SF-539 CNS it was 1.64 µM; in the test with OVCAR-5 ovarian, 2.18 µM; in the test with HS 578T breast, 2.75 µM. Moreover, the TGI in the test on NCI-H460 lung was found to be 4.05 µM; in the test with RPMI-8226 leukemia, 6.66 µM; with OVCAR-3 ovarian it was 7.63 µM; in the test on KM12 colon, 10.6 µM; with HOP-92 NSCLC, 8.34 µM; in the test with SF-295 CNS it was 3.24 µM. The TGI in the test with DU-145 prostate amounted to 11.2 µM; in the test on SF-539 CNS, 3.19 µM; with OVCAR-5 ovarian, 8.53 µM; in the test with HS 578T breast, 10.1 µM.
As to `Cc1cccc(Cl)c1NC(=O)c1cnc(Nc2cc(N3CCOCC3)cc(N3CCOCC3)c2)s1`, the GI50 in the test on NCI-H460 lung is > 5.16 µM; in the test with RPMI-8226 leukemia it was > 6.24 µM; in the test on OVCAR-3 ovarian it was 0.0644 µM; with KM12 colon, > 6.22 µM; in the test with HOP-92 NSCLC, 0.00255 µM; in the test on SF-295 CNS it was 0.154 µM. The GI50 in the test on DU-145 prostate was 0.163 µM; in the test on SF-539 CNS, 0.0366 µM; in the test on OVCAR-5 ovarian it was 0.0275 µM; in the test with HS 578T breast, 0.0151 µM. Moreover, the TGI is > 10 µM in the test on NCI-H460 lung; > 10 µM in the test with RPMI-8226 leukemia; > 10 µM with OVCAR-3 ovarian; > 10 µM with KM12 colon; 0.031 µM in the test on HOP-92 NSCLC; > 10 µM in the test on SF-295 CNS. Besides, the TGI in the test on DU-145 prostate was > 3.6 µM; in the test with SF-539 CNS it was > 6.8 µM; with OVCAR-5 ovarian, > 10 µM; in the test on HS 578T breast it was 0.157 µM.
For `Cc1cc([N+](=O)[O-])ccc1NS(=O)(=O)c1cc(Cl)ccc1Cl`, the GI50 is 2.97 µM in the test with NCI-H460 lung; 1.9 µM in the test with RPMI-8226 leukemia; 3.24 µM in the test on OVCAR-3 ovarian; 4.04 µM in the test on KM12 colon; 0.666 µM in the test on HOP-92 NSCLC; 2.46 µM with SF-295 CNS. Also, the GI50 in the test with DU-145 prostate is 5.37 µM; in the test with SF-539 CNS, 3.45 µM; with OVCAR-5 ovarian, 5.1 µM; in the test with HS 578T breast it was 4.23 µM. The TGI was > 43.6 µM in the test on NCI-H460 lung; 6.88 µM with RPMI-8226 leukemia; > 46.6 µM in the test with OVCAR-3 ovarian; 34.5 µM in the test with KM12 colon; 3.81 µM with HOP-92 NSCLC; 9.26 µM in the test on SF-295 CNS. The TGI in the test with DU-145 prostate is > 100 µM; in the test with SF-539 CNS, 20.7 µM; with OVCAR-5 ovarian it was > 100 µM; in the test with HS 578T breast, 60.5 µM.
For `O=C1c2cc(-c3ccccc3)ccc2-c2c1c1ccc([N+](=O)[O-])cc1c(=O)n2CCCBr`, the GI50 was > 50 µM in the test with NCI-H460 lung; > 32.8 µM in the test on RPMI-8226 leukemia; > 50 µM with OVCAR-3 ovarian; > 50 µM with KM12 colon; 17.8 µM with HOP-92 NSCLC; > 37.4 µM in the test with SF-295 CNS. Moreover, the GI50 is > 50 µM in the test on DU-145 prostate, > 28.7 µM in the test on SF-539 CNS, > 50 µM in the test on OVCAR-5 ovarian and 10.5 µM in the test with HS 578T breast. Moreover, the TGI in the test with NCI-H460 lung, in the test on RPMI-8226 leukemia, in the test with OVCAR-3 ovarian, in the test on KM12 colon, in the test on HOP-92 NSCLC and in the test on SF-295 CNS was > 50 µM each time. Further, the TGI in the test on DU-145 prostate was > 50 µM; in the test with SF-539 CNS, > 50 µM; in the test with OVCAR-5 ovarian, > 50 µM; in the test on HS 578T breast, > 40.7 µM.
In the case of `COc1cc(F)cc([C@@H](CO)NC(=O)[C@@H](C)N2Cc3ccc(-c4nc(NC5CCOCC5)ncc4Cl)cc3C2=O)c1`, the GI50 was 6.14 µM in the test with NCI-H460 lung; 1.83 µM in the test with RPMI-8226 leukemia; 16.5 µM in the test on OVCAR-3 ovarian; 0.0988 µM with KM12 colon; 0.0321 µM in the test with HOP-92 NSCLC; 14.7 µM in the test with SF-295 CNS. Moreover, the GI50 was 12.3 µM with DU-145 prostate, 5.33 µM with SF-539 CNS, < 0.0127 µM with OVCAR-5 ovarian and 4.96 µM in the test with HS 578T breast. Further, the TGI was > 100 µM with NCI-H460 lung; 38.1 µM in the test with RPMI-8226 leukemia; > 68.6 µM with OVCAR-3 ovarian; 37.4 µM in the test on KM12 colon; 0.26 µM in the test on HOP-92 NSCLC; 85.4 µM in the test on SF-295 CNS. Also, the TGI in the test on DU-145 prostate was > 84.2 µM; with SF-539 CNS, 33.9 µM; in the test on OVCAR-5 ovarian, > 100 µM; in the test with HS 578T breast it was > 81.9 µM.
In the case of `COc1c2c(c(CC=C(C)C)c3oc(=O)c(-c4ccc(O)cc4)c(O)c13)OC(C)(C)C=C2`, the TGI was 68.4 µM in the test on NCI-H460 lung; 75.3 µM with RPMI-8226 leukemia; 67.2 µM with OVCAR-3 ovarian; 35 µM in the test with KM12 colon; 58.7 µM with HOP-92 NSCLC; > 100 µM in the test with SF-295 CNS. Moreover, the TGI in the test on DU-145 prostate was > 100 µM; in the test with SF-539 CNS, 32.8 µM; in the test with OVCAR-5 ovarian, > 100 µM; in the test on HS 578T breast, > 100 µM.
As to `C[C@@H](NC(=O)[C@@H](CC(=O)N1CCC(N2CCCCC2)CC1)N1C(=O)[C@@H](N2C(=O)OC[C@@H]2c2ccccc2)[C@H]1/C=C/c1cccc(Cl)c1)c1ccccc1`, the GI50 in the test with NCI-H460 lung is 2.02 µM; with RPMI-8226 leukemia, 2.93 µM; in the test with OVCAR-3 ovarian it was 1.99 µM; in the test with KM12 colon it was 2.72 µM; with HOP-92 NSCLC, 3.64 µM; with SF-295 CNS, 1.84 µM. Besides, the GI50 was 4.03 µM with DU-145 prostate, 1.76 µM in the test with SF-539 CNS, 5.78 µM in the test on OVCAR-5 ovarian and 2.77 µM in the test on HS 578T breast. Also, the TGI in the test on NCI-H460 lung amounted to 3.95 µM; in the test on RPMI-8226 leukemia, 8.32 µM; with OVCAR-3 ovarian, 4.49 µM; in the test on KM12 colon, 9.63 µM; in the test with HOP-92 NSCLC, 16.8 µM; with SF-295 CNS it was 3.91 µM. For the same compound, the TGI is 14.3 µM in the test with DU-145 prostate, 3.38 µM in the test with SF-539 CNS, 20.9 µM in the test on OVCAR-5 ovarian and 7.16 µM in the test on HS 578T breast.
